From publication PMC5341070, “Small molecule inhibitors block Gas6-inducible TAM activation and tumorigenicity” (Scientific Reports, 2017)

Columns and labels:
Experiment in all cases: biochemical
Set-up in all cases: KINOMEscan (DiscoverX) competition binding screen of 97 human kinases, percent of control at 10 uM
PRKCE = PRKCE (Homo sapiens, UniProt Q02156)
Description: (§1) The KINOMEscan profiling of the inhibitors were performed as per directions by the manufacturer (DiscoverX) against a panel of human protein kinases.

PIM3 = PIM3 (Homo sapiens, UniProt Q86V86)
Description: as §1

TGFBR1 = TGFBR1 (Homo sapiens, UniProt P36897)
Description: as §1

PLK1 = PLK1 (Homo sapiens, UniProt P53350)
Description: as §1

PIK3CA = PIK3CA (Homo sapiens, UniProt P42336)
Description: as §1

PLK4 = PLK4 (Homo sapiens, UniProt O00444)
Description: as §1

KIT(D816V) = KIT(D816V) (Homo sapiens, UniProt P10721, D816V)
Description: as §1

EGFR(L858R) = EGFR(L858R) (Homo sapiens, UniProt P00533, L858R)
Description: as §1

MARK3 = MARK3 (Homo sapiens, UniProt P27448)
Description: as §1

MKNK1 = MKNK1 (Homo sapiens, UniProt Q9BUB5)
Description: as §1

MET = MET (Homo sapiens, UniProt P08581)
Description: as §1

CDK7 = CDK7 (Homo sapiens, UniProt P50613)
Description: as §1

FGFR3 = FGFR3 (Homo sapiens, UniProt P22607)
Description: as §1

TRKA = target: T1, TRKA (Homo sapiens, UniProt P04629)
T1 construct: gene NTRK1
Description: as §1

BMPR2 = BMPR2 (Homo sapiens, UniProt Q13873)
Description: as §1

MAP3K4 = MAP3K4 (Homo sapiens, UniProt Q9Y6R4)
Description: as §1

BTK = BTK (Homo sapiens, UniProt Q06187)
Description: as §1

p38-beta = target: T2, p38-beta (Homo sapiens, UniProt Q15759)
T2 construct: gene MAPK11
Description: as §1

PKAC-alpha = target: T3, PKAC-alpha (Homo sapiens, UniProt P17612)
T3 construct: gene PRKACA
Description: as §1

CDK2 = CDK2 (Homo sapiens, UniProt P24941)
Description: as §1

ROCK2 = ROCK2 (Homo sapiens, UniProt O75116)
Description: as §1

[1] = target: T4, ABL1(T315I)-phosphorylated (Homo sapiens, UniProt P00519, T315I)
T4 construct: phosphorylated
Description: as §1

TSSK1B = TSSK1B (Homo sapiens, UniProt Q9BXA7)
Description: as §1

PDGFRB = PDGFRB (Homo sapiens, UniProt P09619)
Description: as §1

[2] = read-out: R428 %Ctrl @ 10000nM, binding competition
[3] = binding competition, % of control, read-out: RU-301 %Ctrl @ 10000nM

PRKCE, sequence (Q02156 whole entry): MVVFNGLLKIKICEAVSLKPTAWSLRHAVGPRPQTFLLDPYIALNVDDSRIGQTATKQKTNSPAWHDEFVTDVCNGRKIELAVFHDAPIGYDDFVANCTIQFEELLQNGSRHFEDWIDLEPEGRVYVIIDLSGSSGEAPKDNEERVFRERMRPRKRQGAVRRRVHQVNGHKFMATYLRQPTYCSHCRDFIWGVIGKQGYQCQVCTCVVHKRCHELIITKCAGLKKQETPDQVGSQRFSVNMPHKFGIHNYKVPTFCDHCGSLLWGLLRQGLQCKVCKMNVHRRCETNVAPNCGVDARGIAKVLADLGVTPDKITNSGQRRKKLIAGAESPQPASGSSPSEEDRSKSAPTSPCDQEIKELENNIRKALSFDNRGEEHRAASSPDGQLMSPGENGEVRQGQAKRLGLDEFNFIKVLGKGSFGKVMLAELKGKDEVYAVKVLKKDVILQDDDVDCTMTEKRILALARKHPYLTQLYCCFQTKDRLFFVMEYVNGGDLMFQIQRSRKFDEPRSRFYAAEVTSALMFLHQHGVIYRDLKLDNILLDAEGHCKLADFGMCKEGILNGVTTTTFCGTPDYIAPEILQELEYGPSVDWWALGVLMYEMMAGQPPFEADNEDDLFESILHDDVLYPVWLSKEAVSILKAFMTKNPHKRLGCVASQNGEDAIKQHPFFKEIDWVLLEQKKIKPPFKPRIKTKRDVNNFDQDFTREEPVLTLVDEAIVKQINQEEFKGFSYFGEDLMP
MAP3K4, sequence (Q9Y6R4 whole entry): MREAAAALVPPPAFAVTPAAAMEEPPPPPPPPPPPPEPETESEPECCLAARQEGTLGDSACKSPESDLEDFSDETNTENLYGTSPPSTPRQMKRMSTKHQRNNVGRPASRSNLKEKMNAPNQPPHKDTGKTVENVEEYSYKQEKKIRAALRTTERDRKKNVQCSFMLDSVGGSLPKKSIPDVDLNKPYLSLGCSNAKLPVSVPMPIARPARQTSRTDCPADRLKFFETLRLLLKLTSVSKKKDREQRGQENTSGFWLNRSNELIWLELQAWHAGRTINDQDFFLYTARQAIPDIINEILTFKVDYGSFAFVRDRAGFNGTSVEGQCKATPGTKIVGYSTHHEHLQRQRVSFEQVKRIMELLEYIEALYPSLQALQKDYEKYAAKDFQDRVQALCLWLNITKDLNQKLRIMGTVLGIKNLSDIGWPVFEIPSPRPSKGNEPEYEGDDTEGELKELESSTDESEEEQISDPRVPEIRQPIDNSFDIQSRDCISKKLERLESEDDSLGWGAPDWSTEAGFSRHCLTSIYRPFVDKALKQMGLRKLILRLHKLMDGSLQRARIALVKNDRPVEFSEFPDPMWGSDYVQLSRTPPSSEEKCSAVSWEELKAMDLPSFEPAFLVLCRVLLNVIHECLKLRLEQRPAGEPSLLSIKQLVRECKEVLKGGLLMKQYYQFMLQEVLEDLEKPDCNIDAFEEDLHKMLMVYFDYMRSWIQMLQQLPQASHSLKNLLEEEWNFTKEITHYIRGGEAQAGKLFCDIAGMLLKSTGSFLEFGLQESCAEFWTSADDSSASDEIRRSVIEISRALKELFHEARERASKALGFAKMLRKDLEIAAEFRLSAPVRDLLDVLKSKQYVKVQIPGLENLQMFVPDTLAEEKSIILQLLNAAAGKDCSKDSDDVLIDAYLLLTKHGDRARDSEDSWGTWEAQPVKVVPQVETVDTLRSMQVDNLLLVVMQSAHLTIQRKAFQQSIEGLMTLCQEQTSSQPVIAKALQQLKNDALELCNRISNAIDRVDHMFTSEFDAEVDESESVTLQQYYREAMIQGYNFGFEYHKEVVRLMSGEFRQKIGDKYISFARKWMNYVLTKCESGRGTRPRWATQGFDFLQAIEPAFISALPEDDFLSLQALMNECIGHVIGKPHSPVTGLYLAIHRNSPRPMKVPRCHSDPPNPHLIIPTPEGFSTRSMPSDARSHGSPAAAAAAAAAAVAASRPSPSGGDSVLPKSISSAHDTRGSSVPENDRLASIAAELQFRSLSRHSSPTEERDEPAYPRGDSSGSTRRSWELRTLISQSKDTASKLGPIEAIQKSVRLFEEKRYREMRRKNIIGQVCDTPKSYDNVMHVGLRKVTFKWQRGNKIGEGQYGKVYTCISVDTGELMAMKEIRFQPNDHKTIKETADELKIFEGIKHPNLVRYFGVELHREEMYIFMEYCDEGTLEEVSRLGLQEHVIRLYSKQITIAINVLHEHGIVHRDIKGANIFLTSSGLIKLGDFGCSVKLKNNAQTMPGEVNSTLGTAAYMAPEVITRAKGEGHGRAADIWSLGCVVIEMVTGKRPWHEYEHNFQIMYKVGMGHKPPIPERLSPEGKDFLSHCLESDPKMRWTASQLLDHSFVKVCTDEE
KIT(D816V), sequence (P10721 whole entry D816V): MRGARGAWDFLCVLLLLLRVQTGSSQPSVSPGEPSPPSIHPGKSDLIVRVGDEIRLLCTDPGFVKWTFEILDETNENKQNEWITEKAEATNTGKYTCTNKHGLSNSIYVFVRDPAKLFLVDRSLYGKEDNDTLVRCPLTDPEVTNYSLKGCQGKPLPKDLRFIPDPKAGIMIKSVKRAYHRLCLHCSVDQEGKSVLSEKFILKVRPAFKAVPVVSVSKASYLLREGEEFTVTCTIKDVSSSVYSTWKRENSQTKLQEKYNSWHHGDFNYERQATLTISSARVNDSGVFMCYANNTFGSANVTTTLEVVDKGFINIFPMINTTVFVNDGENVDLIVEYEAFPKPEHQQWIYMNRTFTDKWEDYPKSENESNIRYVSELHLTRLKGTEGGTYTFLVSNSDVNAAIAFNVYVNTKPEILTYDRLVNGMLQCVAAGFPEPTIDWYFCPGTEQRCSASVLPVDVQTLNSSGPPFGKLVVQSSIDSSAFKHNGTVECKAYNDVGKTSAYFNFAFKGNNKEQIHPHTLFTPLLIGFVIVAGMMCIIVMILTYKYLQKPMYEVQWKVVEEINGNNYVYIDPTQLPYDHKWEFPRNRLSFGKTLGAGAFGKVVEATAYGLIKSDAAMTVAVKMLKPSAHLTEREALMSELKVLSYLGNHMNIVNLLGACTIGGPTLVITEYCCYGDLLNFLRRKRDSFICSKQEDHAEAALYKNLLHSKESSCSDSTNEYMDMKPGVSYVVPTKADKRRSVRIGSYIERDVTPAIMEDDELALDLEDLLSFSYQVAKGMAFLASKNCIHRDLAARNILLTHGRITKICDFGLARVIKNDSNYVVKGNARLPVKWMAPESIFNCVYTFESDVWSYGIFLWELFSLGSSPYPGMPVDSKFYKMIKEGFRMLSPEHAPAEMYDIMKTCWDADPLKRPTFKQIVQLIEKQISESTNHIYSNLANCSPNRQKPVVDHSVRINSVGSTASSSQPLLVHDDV
MARK3, sequence (P27448 whole entry): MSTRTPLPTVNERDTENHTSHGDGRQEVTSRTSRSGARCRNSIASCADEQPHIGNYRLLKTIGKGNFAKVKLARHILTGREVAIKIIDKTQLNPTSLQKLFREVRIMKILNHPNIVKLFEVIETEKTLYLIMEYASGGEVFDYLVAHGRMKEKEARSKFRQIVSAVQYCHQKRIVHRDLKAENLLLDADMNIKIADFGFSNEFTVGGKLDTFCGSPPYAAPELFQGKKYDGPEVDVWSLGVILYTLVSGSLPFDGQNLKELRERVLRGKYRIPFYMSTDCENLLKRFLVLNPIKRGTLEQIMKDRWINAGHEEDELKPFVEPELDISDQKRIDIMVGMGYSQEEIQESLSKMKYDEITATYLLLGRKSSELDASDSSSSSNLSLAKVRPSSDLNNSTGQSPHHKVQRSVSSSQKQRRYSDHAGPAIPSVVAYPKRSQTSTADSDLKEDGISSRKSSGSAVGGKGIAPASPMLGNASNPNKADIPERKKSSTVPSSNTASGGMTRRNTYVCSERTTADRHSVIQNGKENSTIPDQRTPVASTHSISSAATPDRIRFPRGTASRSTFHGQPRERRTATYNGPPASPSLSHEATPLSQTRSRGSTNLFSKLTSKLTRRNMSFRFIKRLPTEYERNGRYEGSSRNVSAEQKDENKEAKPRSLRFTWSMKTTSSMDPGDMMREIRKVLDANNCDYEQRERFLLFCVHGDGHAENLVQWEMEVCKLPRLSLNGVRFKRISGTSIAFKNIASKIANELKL
T1 sequence (P04629 whole entry): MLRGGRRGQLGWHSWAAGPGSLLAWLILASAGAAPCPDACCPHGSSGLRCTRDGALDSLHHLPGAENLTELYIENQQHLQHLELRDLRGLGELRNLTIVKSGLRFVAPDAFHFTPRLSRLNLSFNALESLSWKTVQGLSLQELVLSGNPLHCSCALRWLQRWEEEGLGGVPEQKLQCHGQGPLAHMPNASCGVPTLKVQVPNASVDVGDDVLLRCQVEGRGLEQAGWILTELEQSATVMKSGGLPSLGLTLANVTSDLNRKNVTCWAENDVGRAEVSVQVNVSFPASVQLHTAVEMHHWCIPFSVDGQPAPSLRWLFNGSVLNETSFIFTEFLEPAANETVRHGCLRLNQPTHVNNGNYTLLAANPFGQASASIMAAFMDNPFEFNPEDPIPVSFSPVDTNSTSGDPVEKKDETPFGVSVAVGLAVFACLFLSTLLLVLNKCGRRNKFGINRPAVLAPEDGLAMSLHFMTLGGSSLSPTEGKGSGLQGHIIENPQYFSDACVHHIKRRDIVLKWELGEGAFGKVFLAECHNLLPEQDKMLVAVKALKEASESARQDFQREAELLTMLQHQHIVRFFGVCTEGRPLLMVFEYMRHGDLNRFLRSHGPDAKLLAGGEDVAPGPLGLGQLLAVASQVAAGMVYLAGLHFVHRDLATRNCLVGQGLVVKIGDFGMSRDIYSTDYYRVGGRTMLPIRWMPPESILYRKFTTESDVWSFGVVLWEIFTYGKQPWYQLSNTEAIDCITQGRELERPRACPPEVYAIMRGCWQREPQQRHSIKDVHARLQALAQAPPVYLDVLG

## Nc1nc(Nc2ccc3c(c2)CC[C@@H](N2CCCC2)CC3)nn1-c1cc2c(nn1)-c1ccccc1CCC2 [R428]
PRKCE; [2]
  percent of control binding at 10 µM: 24%
PIM3; [2]
  percent of control binding at 10 µM: 84%
TGFBR1; [2]
  percent of control binding at 10 µM: 75%
PLK1; [2]
  percent of control binding at 10 µM: 2.9%
PIK3CA; [2]
  percent of control binding at 10 µM: 45%
PLK4; [2]
  percent of control binding at 10 µM: 1.7%
KIT(D816V); [2]
  percent of control binding at 10 µM: 0.15%
EGFR(L858R); [2]
  percent of control binding at 10 µM: 10%
MARK3; [2]
  percent of control binding at 10 µM: 49%
MKNK1; [2]
  percent of control binding at 10 µM: 19%
MET; [2]
  percent of control binding at 10 µM: 9.4%
CDK7; [2]
  percent of control binding at 10 µM: 23%
FGFR3; [2]
  percent of control binding at 10 µM: 30%
TRKA; [2]
  percent of control binding at 10 µM: 3.9%
BMPR2; [2]
  percent of control binding at 10 µM: 23%
MAP3K4; [2]
  percent of control binding at 10 µM: 0.7%
BTK; [2]
  percent of control binding at 10 µM: 31%
p38-beta; [2]
  percent of control binding at 10 µM: 84%
PKAC-alpha; [2]
  percent of control binding at 10 µM: 48%
CDK2; [2]
  percent of control binding at 10 µM: 71%
ROCK2; [2]
  percent of control binding at 10 µM: 3%
[1]; [2]
  percent of control binding at 10 µM: 0.9%
TSSK1B; [2]
  percent of control binding at 10 µM: 22%
PDGFRB; [2]
  percent of control binding at 10 µM: 0%

## Cc1cc(CSc2ccccc2C(=O)NCCNc2ccc(C(F)(F)F)cc2[N+](=O)[O-])on1 [RU-301]
PRKCE; [3]
  remaining binding at 10 µM: 91%
PIM3; [3]
  remaining binding at 10 µM: 86%
TGFBR1; [3]
  remaining binding at 10 µM: 100%
PLK1; [3]
  remaining binding at 10 µM: 95%
PIK3CA; [3]
  remaining binding at 10 µM: 100%
PLK4; [3]
  remaining binding at 10 µM: 81%
KIT(D816V); [3]
  remaining binding at 10 µM: 100%
EGFR(L858R); [3]
  remaining binding at 10 µM: 94%
MARK3; [3]
  remaining binding at 10 µM: 87%
MKNK1; [3]
  remaining binding at 10 µM: 78%
MET; [3]
  remaining binding at 10 µM: 88%
CDK7; [3]
  remaining binding at 10 µM: 85%
FGFR3; [3]
  remaining binding at 10 µM: 91%
TRKA; [3]
  remaining binding at 10 µM: 100%
BMPR2; [3]
  remaining binding at 10 µM: 78%
MAP3K4; [3]
  remaining binding at 10 µM: 100%
BTK; [3]
  remaining binding at 10 µM: 100%
p38-beta; [3]
  remaining binding at 10 µM: 100%
PKAC-alpha; [3]
  remaining binding at 10 µM: 90%
CDK2; [3]
  remaining binding at 10 µM: 100%
ROCK2; [3]
  remaining binding at 10 µM: 75%
[1]; [3]
  remaining binding at 10 µM: 100%
TSSK1B; [3]
  remaining binding at 10 µM: 78%
PDGFRB; [3]
  remaining binding at 10 µM: 91%
